Measured values as given in US9730937B2, “RAF kinase modulator compounds and methods of use thereof” (AMBIT BIOSCIENCES CORPORATION, priority 2008, dated 2017).
Where a name gives a salt, the structure may show the parent alone. Read-outs that look alike come from different tables or passages of the source.

Assays:
mutant BRAF kinase = mutant BRAF kinase (Homo sapiens (Human), UniProt P15056, V600E); conditions: read-out: BRAF V600E Kd, class symbols
[1] = system: panel of 290 distinct kinases (321 in the larger panel), excluding mutant variants; conditions: kinase selectivity score, class symbols
wild type BRAF kinase = wild type BRAF kinase (Homo sapiens (Human), UniProt P15056); conditions: read-out: BRAF WT Kd, class symbols
Chain of wild type BRAF kinase (P15056 whole entry): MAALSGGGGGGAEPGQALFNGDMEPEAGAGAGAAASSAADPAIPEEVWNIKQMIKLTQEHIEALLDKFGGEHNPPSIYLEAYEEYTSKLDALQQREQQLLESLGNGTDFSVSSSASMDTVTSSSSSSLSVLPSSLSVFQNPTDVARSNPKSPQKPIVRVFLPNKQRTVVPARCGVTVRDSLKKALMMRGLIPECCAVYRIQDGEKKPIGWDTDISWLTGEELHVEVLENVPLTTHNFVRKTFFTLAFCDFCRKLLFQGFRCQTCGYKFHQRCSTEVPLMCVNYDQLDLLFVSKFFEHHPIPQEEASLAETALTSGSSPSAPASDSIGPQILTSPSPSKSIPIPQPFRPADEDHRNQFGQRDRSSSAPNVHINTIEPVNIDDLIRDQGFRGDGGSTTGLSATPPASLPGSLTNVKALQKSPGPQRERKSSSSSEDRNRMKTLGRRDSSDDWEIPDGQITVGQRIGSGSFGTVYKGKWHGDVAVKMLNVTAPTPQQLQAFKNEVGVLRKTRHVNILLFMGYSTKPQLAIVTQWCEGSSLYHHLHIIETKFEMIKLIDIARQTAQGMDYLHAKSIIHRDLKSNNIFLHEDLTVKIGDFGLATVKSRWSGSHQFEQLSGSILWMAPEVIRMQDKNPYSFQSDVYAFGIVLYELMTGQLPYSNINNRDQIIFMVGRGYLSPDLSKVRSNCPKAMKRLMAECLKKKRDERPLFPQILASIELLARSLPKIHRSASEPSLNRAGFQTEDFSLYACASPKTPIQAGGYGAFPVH

RAF kinases = RAF kinases (Homo sapiens (Human), UniProt P04049); conditions: read-out: RAF1 Kd, class symbols
Chain of RAF kinases (P04049 whole entry): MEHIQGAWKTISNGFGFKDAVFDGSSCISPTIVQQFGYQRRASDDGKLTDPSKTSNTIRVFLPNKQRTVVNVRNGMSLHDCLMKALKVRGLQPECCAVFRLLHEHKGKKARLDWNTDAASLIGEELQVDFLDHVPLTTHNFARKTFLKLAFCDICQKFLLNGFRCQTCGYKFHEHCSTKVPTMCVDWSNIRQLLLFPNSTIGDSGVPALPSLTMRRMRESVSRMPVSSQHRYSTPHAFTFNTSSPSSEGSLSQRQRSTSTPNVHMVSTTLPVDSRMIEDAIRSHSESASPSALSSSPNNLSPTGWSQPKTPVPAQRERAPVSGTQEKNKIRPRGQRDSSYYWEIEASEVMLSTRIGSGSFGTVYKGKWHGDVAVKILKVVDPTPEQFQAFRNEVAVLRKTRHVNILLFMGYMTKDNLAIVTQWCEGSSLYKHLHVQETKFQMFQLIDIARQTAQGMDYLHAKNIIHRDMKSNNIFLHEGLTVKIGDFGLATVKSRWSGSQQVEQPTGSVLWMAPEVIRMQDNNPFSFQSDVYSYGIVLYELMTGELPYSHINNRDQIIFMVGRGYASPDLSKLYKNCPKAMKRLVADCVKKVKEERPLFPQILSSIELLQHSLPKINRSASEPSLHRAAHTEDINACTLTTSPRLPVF
Description: The liganded beads were blocked with excess biotin and washed with blocking buffer (SeaBlock (Pierce), 1% BSA, 0.05% Tween 20, 1 mM DTT) to remove unbound ligand and to reduce non-specific binding. […] Test compounds were prepared as 100× stocks in DMSO and rapidly diluted into the aqueous environment. DMSO was added to control assays lacking a test compound. Primary screen interactions were performed in polypropylene 384-well plates in a final volume of 34 μL, while Kd determinations were performed in polystyrene 96-well plates in a final volume of 135 μL. […] The kinase concentration in the eluates was measured by quantitative PCR. Each kinase was tested individually against each compound. KdS were determined using eleven serial threefold dilutions. A selectivity score, which is a quantitative measure of selectivity of a compound against a panel of enzymes, may be calculated for a compound by dividing the number of enzymes for which a compound meets a set criteria, (for example, a binding constant of 100 nM or less), by the total number of enzymes tested. […] (Note, for those compounds tested in a larger kinase panel, as indicated by an asterisk (*) next to the S35 score, the divisor is 321 (i.e. the larger panel contains 321 distinct kinases, excluding mutant variants.)).

[2] = value marked * (larger kinase panel)

Chain of mutant BRAF kinase (P15056 whole entry V600E): as the sequence (P15056 whole entry) above, with V600E counted along it

Structure (SMILES) | Kd (mutant BRAF kinase) [nM] | S35 ([1]; 290 distinct kinases) | Kd (wild type BRAF kinase) [nM] | Kd (RAF kinases) [nM] | S35 [1, 2]
COc1cc2ncnc(Oc3cccc(NC(=O)Nc4cc(C5(C)CC5)on4)c3)c2cc1OC [Ex 127, 1-(3-(6,7-dimethoxyquinazolin-4-yloxy)phenyl)-3-(5-(1-methylcyclopropyl)isoxazol-3-yl)urea] | < 250 | C (0.20 < C ≦ 0.40) | < 250 | < 250 | –
COc1cc2ncnc(Sc3cccc(NC(=O)Nc4cc(C(C)(C)C)on4)c3)c2cc1OCCCS(C)(=O)=O [Ex 64, 1-(5-tert-butylisoxazol-3-yl)-3-(3-(7-methoxy-6-(3-(methylsulfonyl)propoxy)quinazolin-4-ylthio)phenyl)urea] | < 250 | C (0.20 < C ≦ 0.40) | < 250 | < 250 | –
CCOC(C)(C)c1cc(NC(=O)Nc2cccc(Oc3ncnc4cc(OC)c(OC)cc34)c2)n(-c2ccccc2)n1 [Ex 168, 1-[3-(6,7-dimethoxyquinazolin-4-yloxy)phenyl]-3-[3-(2-ethoxypropan-2-yl)-1-phenyl-1H-pyrazol-5-yl]urea] | – | – | > 1000 | > 1000 | C* (0.20 < C ≦ 0.40)
COc1cc2ncnc(Oc3cc(NC(=O)Nc4cc(C(C)(C)C)on4)ccc3Cl)c2cc1OC [Ex 10, 1-(5-tert-butylisoxazol-3-yl)-3-(4-chloro-3-(6,7-dimethoxyquinazolin-4-yloxy)phenyl)urea] | – | C (0.20 < C ≦ 0.40) | > 1000 | > 1000 | –
COc1cc2ncnc(Sc3cccc(NC(=O)Nc4cc(C(C)(C)C)on4)c3)c2cc1OCCN1CCS(=O)(=O)CC1 [Ex 71, 1-(5-tert-butyl-isoxazol-3-yl)-3-(3-{6-[2-(1,1-dioxo-thiomorpholin-4-yl)-ethoxy]-7-methoxy-quinazolin-4-ylsulfanyl}-phenyl)-urea] | < 250 | C (0.20 < C ≦ 0.40) | < 250 | < 250 | –
COc1cc2c(Oc3cccc(NC(=O)Nc4cc(C(C)(C)C)on4)c3)ncnc2cc1OC1CCN(CC(F)F)CC1 [Ex 105, 1-(5-tert-butylisoxazol-3-yl)-3-(3-{7-[1-(2,2-difluoroethyl)piperidin-4-yloxy]-6-methoxyquinazolin-4-yloxy}phenyl)urea] | > 1000 | – | > 1000 | > 1000 | C* (0.20 < C ≦ 0.40)
COc1cc2ncnc(Sc3cccc(NC(=O)Nc4cc(C(F)(F)F)nn4-c4ccccc4)c3)c2cc1OC [Ex 192, 1-[3-(6,7-dimethoxyquinazolin-4-ylthio)phenyl]-3-[1-phenyl-3-(trifluoromethyl)-1H-pyrazol-5-yl]urea] | – | – | > 1000 | > 1000 | C* (0.20 < C ≦ 0.40)
COc1cc2c(Oc3cccc(NC(=O)Nc4cc(C(C)(C)C)on4)c3)ncnc2cc1O[C@H]1CCN(CC(F)(F)F)C1 [Ex 104, (S)-1-(5-tert-butylisoxazol-3-yl)-3-(3-{6-methoxy-7-[1-(2,2,2-trifluoroethyl)pyrrolidin-3-yloxy]quinazolin-4-yloxy}phenyl)urea] | > 1000 | – | > 1000 | > 1000 | B* (0.10 < B ≦ 0.20)
COc1cc2ncnc(Sc3cccc(NC(=O)Nc4cc(C(C)C)on4)c3)c2cc1OC [Ex 134, 1-(3-(6,7-dimethoxyquinazolin-4-ylthio)phenyl)-3-(5-isopropylisoxazol-3-yl)urea] | < 250 | – | < 250 | < 250 | C* (0.20 < C ≦ 0.40)
COc1cc2ncnc(Oc3cccc(NC(=O)Nc4cc(C5(C(F)(F)F)CCC5)no4)c3)c2cc1OC [Ex 155, 1-(3-(6,7-dimethoxyquinazolin-4-yloxy)phenyl)-3-(3-(1-(trifluoromethyl)cyclobutyl)isoxazol-5-yl)urea] | – | – | > 1000 | > 1000 | C* (0.20 < C ≦ 0.40)
COc1cc2ncnc(Oc3cccc(NC(=O)Nc4cc(C(F)(F)F)nn4-c4ccc(F)cc4)c3)c2cc1OC [Ex 171, 1-[3-(6,7-dimethoxyquinazolin-4-yloxy)phenyl]-3-[1-(4-fluorophenyl)-3-(trifluoromethyl)-1H-pyrazol-5-yl]urea] | – | – | > 1000 | > 1000 | C* (0.20 < C ≦ 0.40)
CCOc1cc2ncnc(Oc3cccc(NC(=O)Nc4cc(C(C)(C)C)on4)c3)c2cc1OCC [Ex 13, 1-(5-tert-butylisoxazol-3-yl)-3-[3-(6,7-diethoxyquinazolin-4-yloxy)phenyl]urea hydrochloride] | – | C (0.20 < C ≦ 0.40) | > 1000 | > 1000 | –
COc1cc2ncnc(Sc3cccc(NC(=O)Nc4cc(C5(C(F)(F)F)CCC5)no4)c3)c2cc1OC [Ex 156, 1-(3-(6,7-dimethoxyquinazolin-4-ylthio)phenyl)-3-(3-(1-(trifluoromethyl)cyclobutyl)isoxazol-5-yl)urea] | – | – | > 1000 | > 1000 | C* (0.20 < C ≦ 0.40)
COc1cc2c(Oc3cccc(NC(=O)Nc4cc(C(C)(C)C)on4)c3)ncnc2cc1O[C@H]1CCN(CC(F)F)C1 [Ex 103, (S)-1-(5-tert-butylisoxazol-3-yl)-3-(3-{7-[1-(2,2-difluoroethyl)pyrrolidin-3-yloxy]-6-methoxyquinazolin-4-yloxy}phenyl)urea] | – | – | > 1000 | > 1000 | C* (0.20 < C ≦ 0.40)
COc1cc2ncnc(Sc3cccc(NC(=O)Nc4ccc(C(F)(F)F)c(OC)c4)c3)c2cc1OC [Ex 190, 1-(3-(6,7-dimethoxyquinazolin-4-ylthio)phenyl)-3-(3-methoxy-4-(trifluoromethyl)phenyl)urea] | – | – | > 1000 | > 1000 | B* (0.10 < B ≦ 0.20)
COc1cc2ncnc(Oc3cccc(NC(=O)Nc4cc(C(C)(C)C)nn4-c4ccccc4)c3)c2cc1OC [Ex 153, 1-(3-tert-butyl-1-phenyl-1H-pyrazol-5-yl)-3-(3-(6,7-dimethoxyquinazolin-4-yloxy)phenyl)urea] | – | – | > 1000 | > 1000 | D* (D > 0.40)
COCCOc1cc(NC(=O)Nc2cccc(Sc3ncnc4cc(OC)c(OC)cc34)c2)ccc1C(F)(F)F [Ex 148, 1-(3-(6,7-dimethoxyquinazolin-4-ylthio)phenyl)-3-(3-(2-methoxyethoxy)-4-(trifluoromethyl)phenyl)urea] | – | – | > 1000 | > 1000 | B* (0.10 < B ≦ 0.20)
COc1cc2ncnc(Sc3cccc(NC(=O)Nc4ccc(Cl)c(C(F)(F)F)c4)c3)c2cc1OC [Ex 186, 1-(4-chloro-3-(trifluoromethyl)phenyl)-3-(3-(6,7-dimethoxyquinazolin-4-ylthio)phenyl)urea] | – | – | > 1000 | > 1000 | B* (0.10 < B ≦ 0.20)
CCOC(=O)Cn1nc(C(C)(C)C)cc1NC(=O)Nc1cccc(Sc2ncnc3cc(OC)c(OC)cc23)c1 [Ex 195, ethyl 2-(3-tert-butyl-5-{3-[3-(6,7-dimethoxyquinazolin-4-ylthio)phenyl]ureido}-1H-pyrazol-1-yl)acetate] | – | – | > 1000 | > 1000 | C* (0.20 < C ≦ 0.40)
COCC(C)(C)c1cc(NC(=O)Nc2cccc(Oc3ncnc4cc(OC)c(OC)cc34)c2)no1 [Ex 130, 1-(3-(6,7-dimethoxyquinazolin-4-yloxy)phenyl)-3-(5-(1-methoxy-2-methylpropan-2-yl)isoxazol-3-yl)urea] | – | C (0.20 < C ≦ 0.40) | > 1000 | > 1000 | –
COCCOc1cc2ncnc(Oc3cccc(NC(=O)Nc4cc(C(=O)N5CCOCC5)cc(C(F)(F)F)c4)c3)c2cc1OC [Ex 205, 1-(3-(6-methoxy-7-(2-methoxyethoxy)quinazolin-4-yloxy)phenyl)-3-(3-(morpholine-4-carbonyl)-5-(trifluoromethyl)phenyl)urea] | – | – | > 1000 | > 1000 | C* (0.20 < C ≦ 0.40)
COc1cc2ncnc(Sc3cccc(NC(=O)Nc4cc(C(F)(F)F)nn4-c4ccc(F)cc4)c3)c2cc1OC [Ex 198, 1-[3-(6,7-dimethoxyquinazolin-4-ylthio)phenyl]-3-[1-(4-fluorophenyl)-3-(trifluoromethyl)-1H-pyrazol-5-yl]urea] | – | – | > 1000 | > 1000 | C* (0.20 < C ≦ 0.40)
COc1cc2ncnc(Oc3cccc(NC(=O)Nc4cc(C(F)(F)F)nn4-c4ccccc4)c3)c2cc1OC [Ex 161, 1-[3-(6,7-dimethoxyquinazolin-4-yloxy)phenyl]-3-[1-phenyl-3-(trifluoromethyl)-1H-pyrazol-5-yl]urea] | – | – | > 1000 | > 1000 | C* (0.20 < C ≦ 0.40)
COc1cc2ncnc(Oc3cccc(NC(=O)Nc4ccccc4)c3)c2cc1OC [Ex 182, 1-(3-(6,7-dimethoxyquinazolin-4-yloxy)phenyl)-3-phenylurea] | > 1000 | – | > 1000 | > 1000 | –
COc1cc2ncnc(Oc3cccc(NC(=O)Nc4cc(C(C)(C)C)on4)c3)c2cc1O[C@H]1CCN(C(=O)OC(C)(C)C)C1 [Ex 108, (S)-tert-butyl 3-(4-(3-(3-(5-tert-butylisoxazole-3-yl)ureido)phenoxy)-7-methoxyquinazolin-6-yloxy)pyrrolidine-1-carboxylate] | – | C (0.20 < C ≦ 0.40) | > 1000 | > 1000 | –
COc1cc2ncnc(Oc3cccc(NC(=O)Nc4cc(C(F)(F)F)nn4-c4ccc(C)cc4)c3)c2cc1OC [Ex 172, 1-[3-(6,7-dimethoxyquinazolin-4-yloxy)phenyl]-3-[1-p-tolyl-3-(trifluoromethyl)-1H-pyrazol-5-yl]urea] | – | – | > 1000 | > 1000 | C* (0.20 < C ≦ 0.40)
CC(C)(C)c1cc(NC(=O)Nc2cccc(Sc3ncnc4cc5c(cc34)OCCO5)c2)no1 [Ex 54, 1-(5-tert-butylisoxazol-3-yl)-3-[3-(7,8-dihydro-[1,4]dioxino[2,3-g]quinazolin-4-ylthio)phenyl]urea hydrochloride] | – | C (0.20 < C ≦ 0.40) | > 1000 | > 1000 | –
